Converted amounts (≈) assume the structure as drawn.
Assay: Solubility tests in water
Type: physicochemical
Description: Solubility tests in water were performed on the new redox mediators in comparison with the standard PQ mediators.

SMILES	Solubility in Water	Solubility in Water (percent)	solubility
CC(=O)[O-].CC(=O)[O-].O=C1C(=O)c2cccnc2-c2ncccc21.O=C1C(=O)c2cccnc2-c2ncccc21.O=C1C(=O)c2cccnc2-c2ncccc21.[Ni+2] [[Ni(PQ)3](O2CCH3)2]	>500000 µg/mL	mg/ml (>50%)	–
O=C1C(=O)c2cccnc2-c2ncccc21.O=C1C(=O)c2cccnc2-c2ncccc21.O=C1C(=O)c2cccnc2-c2ncccc21.[Ni+2].[O-][Cl+3]([O-])([O-])[O-].[O-][Cl+3]([O-])([O-])[O-] [[Ni(PQ)3](ClO4)2]	<500 µg/mL	mg/ml (<0.05%)	–
O=C1C(=O)c2cccnc2-c2ncccc21 [PQ, 1,10-phenanthroline-5,6-dione, reference compound]	–	mg/ml (0.2%)	2000 µg/mL (≈ 9.52 mM)
